Assay results as given in US20260240879A1, “TOPICAL PALA THERAPY FOR CANCER” (priority 2023, published 2026).
Like-named read-outs stand apart in the source and are kept apart here.

What was measured:
[1] = In vitro diffusion test (Franz cells); format: in vitro ADME; details: PALA 50 mg/g, 37° C., PBS pH 7.4
Method: All the formulations were prepared by accurately weighing 50 mg PALA in a 4 mL glass vial. The vial was stirred at RT until a clear solution was obtained. Exception for poloxamers P407 20% w/w and P188 at 40% w/w where the PALA solubilisation was performed by stirring the vial in an ice bath (to prevent gelling which occurred at RT).
In vitro diffusion test (Franz cells, Copley) was performed to mimicking in-vivo conditions of PALA (CMI-34-1) transfer from the formulation through the skin. The test was performed in sink conditions. 100 μL of PALA (CMI-34-1)-loaded hydrogels or bi-gel (containing 5 mg of API) were added to the donor chamber of the Franz cells. 7 mL of PBS pH 7.4 was added to the receptor chamber. The chambers were separated by a Strat-M Membrane (Transdermal Diffusion Test Model, Merck) of 25 mm diameter. The Franz cells were incubated at 37° C. in an appropriate heating block and under stirring at 450 rpm. At selected time points (15, 30, 60, 120, 180, and 1440 minutes), 100 μL of samples was withdrawn from the receptor chamber and analysed by HPLC for drug release. The same volume was replaced with fresh PBS buffer pre-heated at 37° C.

[2] = system: cytokines and chemokines in treated skin; details: mouse, in vivo
Method: The topical formulations of 2% PALA/50% acetone/10% glycerol, 5% imiquimod (IMQ), 5% 5-FU (5-FU), vehicle (50% acetone/10% glycerol) control, and Aquaphor were applied (~0.05 g/mouse) daily to the dorsal skin of SKH1-Elite female mice (8 weeks of age; n=5/group) for 7 days. […] Mice were monitored daily for weight change, skin appearance, and signs of distress.
Skin protein lysates were made by homogenizing frozen tissue with a pestle and scissors in RIPA buffer (50 mM Tris, pH8, 150 mM NaCl, 0.5% sodium deoxycholate, 1% NP-40, 0.1% sodium dodecyl sulfate, lx Pierce protease inhibitor cocktail (A32965, ThermoFisher)). Cytokines and chemokines were quantified from 25 μg of lysate using a custom 10-plex U-PLEX panel (K15069L-2; Meso Scale Discovery) that included: GM-CSF, KC/CXCL1, IFNα, IFNβ, IFNγ, IL-10, IL-6, IL-12p70, IL-17A, IL-17C, IL-17F, IP-10/CXCL10, MCP-1/CCL2, RANTES/CCL5, and TNFα. The MESO SECTOR S 600 plate reader (ICOAA-0; Meso Scale Discovery) was used to collect the U-Plex data and data was analyzed using MSD Discovery Workbench 4.0 software.

[3] = system: chemical carcinogen-induced skin cancer; assay: Chemical carcinogen (DMBA/TPA)-induced skin cancer model, C57BL/6; format: in vivo, C57BL/6 female mice; details: 2% (w/v) PALA/Aquaphor, topical, 4 weeks
Source text: Means±SEM, n=5-6/group. Significance determined by 2-way ANOVA

[4] = system: normal human dermal fibroblasts; assay: PALA stimulation of normal human dermal fibroblasts (bactericidal activity against MRSA, antimicrobial peptides); format: cell-based; details: cells stimulated for 16 h with PALA
Method: A. Bactericidal activity of normal human dermal fibroblasts stimulated by PALA treatment. Cells stimulated for 16 h with the indicated concentration of PALA. Conditioned supernatants added to log phase cultures of methicillin-resistant Staphylococcus aureus (MRSA) for 2 h and viable bacterial determined by selective plating. Mean±SD graphed. B. PALA-stimulated production of antimicrobial peptides in normal human dermal fibroblasts. Cells were stimulated as in A. and supernatants assayed by ELISA for human β-defensin 2 (HBD2) and human β-defensin 3 (HBD3). Mean±SD graphed. C. […] Cell lysates from the cells shown in A. were assayed for their ability to catalyze the formation of carbamyl aspartate (CA) in vitro. Percent change in CA levels graphed; mean±SD. […] D. Average number of tumors per mouse at the end of the treatment period (mean±SEM graphed). D. Mice treated for 10 weeks with vehicle (Aquaphor), 1%, 2%, or 5% PALA in Aquaphor. E. Mice treated for 4 weeks with vehicle (AP0536/29/02), 2% (w/w) PALA (AP0536/29/02), or 4% (w/w) PALA (AP0536/29/02).

[5] = system: MOC-1 squamous cell carcinoma cells; assay: Oral squamous cell carcinoma orthotopic xenograft (tongue); format: in vivo, C57Bl/6 mice; details: 2% (w/w) PALA (AP0536/29/02), tongue treated topically 5×/week
Method: FIG. 18: Tumor growth of oral squamous cell carcinoma orthotopic xenografts is retarded by topical PALA treatment. C57Bl/6 mice (males and females; n=6/group) were injected with MOC-1 squamous cell carcinoma cells in the tongue. Once palpable tumors formed, mouse tongues were treated topically 5×/week with vehicle (AP0536/29/02) or 2% (w/w) PALA (AP0536/29/02). Tumor volume was measured by caliper every 2-3 days. Data are graphed as mean±SEM. Significant differences were determined by Mixed-effects Model (REML) with Sidak's multiple comparison test. *p<0.05, ****p<0.0001.

[6] = system: chemical carcinogen-induced skin cancer; details: 2% (w/v) PALA in 50% acetone/10% glycerol, topical, 4 weeks
Method: SKH1-Elite female mice were treated topically with DMBA for 2 weeks and then treated topically with TPA thrice a week for 8 weeks to induce skin cancer. Mice were then randomized into treatment groups and treated topically with vehicle (50% acetone/10% glycerol) or 2% (w/v) PALA for 4 weeks. A. Quantitation of mean change in tumor burden per mouse during the treatment period as a percentage of the tumor number on week 9. B. Weight change during the treatment period presented as percentage of baseline weight. C. Levels of the liver and systemic inflammation marker serum amyloid A (SAA) at endpoint. D. Measurements of colon length at endpoint as a gross measure of intestinal pathology. Means±SEM, n=8-9/group. Significance determined by 2-way ANOVA with Sidak's multiple comparisons test or unpaired […] t-test. All p values <0.05 are shown on the graphs.

## O=C(O)CC(NC(=O)CP(=O)(O)O)C(=O)O [PALA, N-phosphonacetyl-L-aspartate]
[1]
  PALA permeated / released after 24 hours: ~ 0.3%
[2]
  GM-CSF, Mean (SEM): 1.0 (0.1)
  IL-6, Mean (SEM): 38.8 (8.1)
  IL-17A, Mean (SEM): 0.5 (0.09)
  IL-17C, Mean (SEM): 0.6 (0.1)
  KC, Mean (SEM): 31.1 (2.8)
  RANTES, Mean (SEM): 46.4 (9.6)
  expression of inflammatory cytokine/chemokine panel in treated skin (in words): no changes
[3]
  change in tumor burden: effective in reducing tumor burden
[4]
  shape of dose-response curve (bactericidal activity, HBD2, HBD3): U-shaped dose-response curve
[5]
  tumor growth (tumor volume): retarded
[6]
  change in tumor burden: trends of efficacy in reducing tumor burden
